Data reported in patent US9447083B2, “N-acylhydrazone derivatives for selective T cell inhibitor and anti-lymphoid malignancy drug” (CHONG KUN DANG PHARMACEUTICAL CORP., priority 2012, dated 2016).
Read-outs that look alike come from different tables or passages of the source.

Columns and labels:
Jurkat = test: Apoptosis of lymphoid malignancy cell lines (Annexin V / 7-AAD): Jurkat; type: cell-based; details: Homo sapiens, Acute T cell leukemia, 24 hours, read-out: Administration Dose (mean ± SD, μmol/L) Lethal Dose 50 (Apoptosis)
Description: (§1) Each of the acute T cell leukemia cell lines Jurkat, Molt4 and CCRF-CEM, the acute B cell leukemia cell line Raji and the […] cell lines KMS11, KMS12BM, KMS26, KMS28BM, and IM9 was re-suspended in 10% FBS-containing RPMI medium at a concentration of 1.5×10^5 cells/mL, and 200 μL of each of the cell suspensions was cultured in a flat bottom 96-well plate (Costar). The acute NK cell lymphoma cell line NK-92MI was re-suspended in α-MEM medium (supplemented with 20% FBS, 1×MEM vitamine solution, 50 μM 2-mercaptoethanol and 1× penicillin/streptomycin) at a concentration of 1.5×10^5 cells/mL, and 200 μL of the cell suspension was cultured in a flat bottom 96-well plate. The cells in each well was treated with 10 μL of each of 0.1, 0.25, 0.5, 0.75 and 1 μM of the compound diluted with RPMI medium, followed by that the cells were incubated in a 5% CO2 incubator at 37° C. for 24 hours. In a vehicle control group, cells were treated with 10 μL of medium containing 0.05% dimetylsulfoxide (DMSO, Sigma).
(§2) The cells were collected, and then the apoptosis thereof was analyzed by a flow cytometer after staining with Annexin V-7-AAD. The incubated cells were collected, placed in a 5-mL FACS tube (BD Falcon) and washed with 1 mL of fluorescence activated cell sorting (FACS) buffer (1%. FBS and 0.1% sodium azaide in PBS). The cells were re-suspended in 0.1 mL of FACS buffer, followed by that the cells were treated and stained with phycoerythrin-Annexin V at room temperature for 10 minutes. After 10 minutes of staining, the cells were treated and stained with 7-AAD at room temperature for 5 minutes. The stained cells were suspended in 0.3 mL of FACS buffer, and then analyzed by a flow cytometer. […] Thus, compounds 065, 108, 229 and 457 of the present invention can be used as a novel anti-lymphoid malignancy drug.

Jurkat T cells = test: Pro-apoptotic activity on Jurkat T cells (FITC-Annexin V / 7-AAD flow cytometry); type: cell-based; details: Homo sapiens, 72 hours, cells stained with FITC-Annexin V and 7-AAD among total cells
Outline: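 Jurkat cells at 1.5×10^5 cells/mL in RPMI/10% FBS treated with compounds at […] or 5 μM final for 72 h at 37° C, vehicle containing 1% DMSO. Stained with FITC-Annexin V and 7-AAD for 15 min at room temperature in pH 7.4 Hepes binding buffer. Apoptosis = % double-stained cells by flow cytometry.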

Molt4 = test: Apoptosis of lymphoid malignancy cell lines: Molt4; type: cell-based; details: Homo sapiens, MOLT-4; Molt4, Acute T cell leukemia, 24 hours; read-out: Administration Dose (mean ± SD, μmol/L) Lethal Dose 50 (Apoptosis)
Description: as §1, §2

IM9 = test: Apoptosis of lymphoid malignancy cell lines: IM9; type: cell-based; details: Homo sapiens, IM-9; IM9, Multiple myeloma, 24 hours; read-out: Administration Dose (mean ± SD, μmol/L) Lethal Dose 50 (Apoptosis)
Description: as §1, §2

[1] = test system: acute graft-versus-host disease; test: Acute graft-versus-host disease, mouse model of allogeneic bone marrow transplantation; type: in vivo; details: 25 mg/kg intraperitoneally daily for 10 days
From the text: Lymph nodes, spleens, both femurs and tibias were aseptically collected from normal C57BL/6 mice (8-12 week old, female, 20-23 g), and T cells were isolated from the lymph nodes and spleens in the same manner as described in Experimental Example 2 and were re-suspended in PBS at a concentration of 8×10^7 cells/mL. The femurs and tibias were cut at the ends, and the bone marrow was flushed from femurs and tibias with RPMI medium using a syringe (21G for femur and 26G for tibia) to extract the marrow, which was then suspended and passed through a cell strainer to make a single cell suspension. The bone marrow cell suspension was centrifuged at 1200 rpm for 5 minutes, and the supernatant was removed, then the cells were added to 1 mL of ACK lysis buffer and vortexed for 1 minute, followed by washing with RPMI medium. […] The incubated cell suspension was added with 5 mL of MACS buffer, centrifuged for 5 minutes, washed, and then re-suspended in 2 mL of MACS buffer. The suspended cells were placed in the autoMACS Pro Separator, and T cells bound to the CD90.2 microbeads were removed. The separated T cell-depleted bone marrow cells (TCD-BM) were washed with PBS and re-suspended in PBS at a concentration of 1×10^8 cells/mL. Normal BDF1 mice (10-12 week old, female, 20-23 g) were irradiated with 850 rad of γ radiation using an irradiator, and then 100 μL of a graft obtained by mixing the C57BL/6 mouse T cells and the TCD-BM at a ratio of 1:1 was injected into the tail vein of the BDF1 mice. In a group treated with compound 229 of the present invention, compound 229 was completely dissolved in a Cremophor EL-ethanol mixture (1:1, v/v) in an amount corresponding to 15% (v/v) of the administration volume, after which the compound solution was diluted in PBS, and the dilution was administered intraperitoneally to each mouse at a dose of 25 mg/kg daily for 10 days from the day of the graft injection. Meanwhile, Tacrolimus that is a currently clinically used immunosuppressive agent was administered to mice of another group in the same amount as compound 229 in order to compare the inhibitory effect on acute graft-versus-host disease, and mice of a vehicle control group were administered with 200 μL of a Cremophor EL-ethanol-PBS (7.5:7.5:85, v/v/v) in the same manner as the treated groups. Then, the survival of mice was monitored daily, and the severity of GVHD was assessed twice a week with clinical GVHD scoring system for each a decrease in weight loss, hunched posture, decreased activity, fur ruffling and skin lesions. Each parameters were scored on a 3-point (0 to 2) scale.

[2] = test system: Experimental Autoimmune Encephalomyelitis (EAE); test: Experimental Autoimmune Encephalomyelitis (EAE) model of multiple sclerosis; type: in vivo, mouse; details: 1 mg/kg orally daily from 17 to 37 days
Description: At the first day of induction, myelin oligodendrocyte glycoprotein35-55 (MOG35-55, Peptron) (200 ug), mycobacterium tuberculosis (Difco, Cat No. 231141) (500 μg) and complete Freund's adjuvant (Sigma Aldrich, Cat No. F5506) were mixed with each other and immersed for 5 minutes. 0.1 mL of the immersed peptide was injected subcutaneously into both the flanks of each of C57BL/6 mice (9 week old, female, 18±2 g), followed by that […] pertussis toxin (Sigma Aldrich, Cat No. P2980) (200 ng) was injected by intravenously. At 2 days, the same amount of pertussis toxin was administered intravenously. Whether the immersion leaked from the injected portion of the mice was checked, and whether EAE was induced was also examined by visual observation from 7 days.
Compound 229 and Fingolimod that is currently clinically used for the treatment of multiple sclerosis were completely dissolved in a Cremophor EL-ethanol mixture (1:1, v/v) in an amount corresponding to 7.5% (v/v) of the administration volume, and the compound solution was diluted in PBS. The two groups of the mice were administered orally with 200 μL of the diluted solution of compound 229 at each doses of 25 and 50 mg/kg separately, and the third group of the mice was administered orally with 200 μL of the diluted solution of fingolimode at a dose of 1 mg/kg on a daily basis from 17 days to 37 days (for total 21 times) after starting of the experiment. In a vehicle control group, 200 μL of a Cremophor EL-ethanol-PBS mixture (3.75:3.75:92.5, v/v/v) was administered to each mouse in the same manner as the treated group. The index of EAE was recorded daily based on visual observation using a severity index system (6-point (0 to 5) scale) from 7 days of the experiment. The symptoms of multiple sclerosis were evaluated based on the following criteria:
2: limp tail and hind limb weakness;
4: hind limb paralysis and forelimb weakness; and […]

Raji = test: Apoptosis of lymphoid malignancy cell lines: Raji; type: cell-based; details: Homo sapiens, Acute B cell leukemia, 24 hours, read-out: Administration Dose (mean ± SD, μmol/L) Lethal Dose 50 (Apoptosis)
Description: as §1, with “In a vehicle control group, cells were treated with 10 μL of medium containing 0.05% dimetylsulfoxide (DMSO, Sigma).” left out
(§3) The cells were collected, and then the apoptosis thereof was analyzed by a flow cytometer after staining with Annexin V-7-AAD. The incubated cells were collected, placed in a 5-mL FACS tube (BD Falcon) and washed with 1 mL of fluorescence activated cell sorting (FACS) buffer (1%. FBS and 0.1% sodium azaide in PBS). […] The stained cells were suspended in 0.3 mL of FACS buffer, and then analyzed by a flow cytometer. […]

KMS26 = test: Apoptosis of lymphoid malignancy cell lines: KMS26; type: cell-based; details: KMS-26; KMS26, Multiple myeloma, 24 hours; read-out: Administration Dose (mean ± SD, μmol/L) Lethal Dose 50 (Apoptosis)
Description: as §1, with “In a vehicle control group, cells were treated with 10 μL of medium containing 0.05% dimetylsulfoxide (DMSO, Sigma).” left out
as §3

CCRF-CEM = test: Apoptosis of lymphoid malignancy cell lines: CCRF-CEM; type: cell-based; details: Homo sapiens, Acute T cell leukemia, 24 hours, read-out: Administration Dose (mean ± SD, μmol/L) Lethal Dose 50 (Apoptosis)
Description: as §1, with “In a vehicle control group, cells were treated with 10 μL of medium containing 0.05% dimetylsulfoxide (DMSO, Sigma).” left out
as §3

KMS11 = test: Apoptosis of lymphoid malignancy cell lines: KMS11; type: cell-based; details: Homo sapiens, KMS-11; KMS11, Multiple myeloma, 24 hours; read-out: Administration Dose (mean ± SD, μmol/L) Lethal Dose 50 (Apoptosis)
Description: as §1, with “In a vehicle control group, cells were treated with 10 μL of medium containing 0.05% dimetylsulfoxide (DMSO, Sigma).” left out
as §3

NK-92MI = test: Apoptosis of lymphoid malignancy cell lines: NK-92MI; type: cell-based; details: Acute NK cell lymphoma, 24 hours, read-out: Administration Dose (mean ± SD, μmol/L) Lethal Dose 50 (Apoptosis)
Description: as §1, with “In a vehicle control group, cells were treated with 10 μL of medium containing 0.05% dimetylsulfoxide (DMSO, Sigma).” left out
as §3

KMS12BM = test: Apoptosis of lymphoid malignancy cell lines: KMS12BM; type: cell-based; details: Homo sapiens, KMS-12-BM, Multiple myeloma, 24 hours, read-out: Administration Dose (mean ± SD, μmol/L) Lethal Dose 50 (Apoptosis)
Description: as §1, with “In a vehicle control group, cells were treated with 10 μL of medium containing 0.05% dimetylsulfoxide (DMSO, Sigma).” left out
as §3

KMS28BM = test: Apoptosis of lymphoid malignancy cell lines: KMS28BM; type: cell-based; details: KMS-28BM, Multiple myeloma, 24 hours, read-out: Administration Dose (mean ± SD, μmol/L) Lethal Dose 50 (Apoptosis)
Description: as §1, with “In a vehicle control group, cells were treated with 10 μL of medium containing 0.05% dimetylsulfoxide (DMSO, Sigma).” left out
as §3

[3] = read-out: Cell Apoptosis Effect to Jurkat T Cell (% in 5 μM)

Compound: Cc1cc(C)c(OCC(=O)N/N=C/c2ccc3cc[nH]c3c2)c(C)c1 [Compound 108, (E)-N′-((1H-indol-6-yl)methylene)-2-(mesityloxy)acetohydrazide]
- EC50 (Jurkat): 0.78 ± 0.04 µmol/L
- cytotoxicity at 5 µM (Jurkat T cells; [3]): 100%
- EC50 (Molt4): 1.38 ± 0.04 µmol/L
- EC50 (IM9): 1.41 ± 0.03 µmol/L

Compound: C=CC[C@@H]1/C=C(\C)C[C@H](C)C[C@H](OC)[C@H]2O[C@@](O)(C(=O)C(=O)N3CCCC[C@H]3C(=O)O[C@H](/C(C)=C/[C@@H]3CC[C@@H](O)[C@H](OC)C3)[C@H](C)[C@@H](O)CC1=O)[C@H](C)C[C@@H]2OC [Tacrolimus, reference compound]
- severity of GVHD (clinical scoring system) [1]: ruffled fur and severe skin lesions
- survival rate ([1]; final (day 70), vehicle 10%): 50%
- mouse death, days after cell transplantation ([1]; vehicle from 29 days): ≥ 23 days

Compound: Cc1cc(C)c(OCC(=O)N/N=C/c2cccc3[nH]ccc23)c(C)c1 [Compound 065, (E)-N′-((1H-indol-4-yl)methylene)-2-(mesityloxy)acetohydrazide]
- EC50 (Jurkat): 0.79 ± 0.01 µmol/L
- cytotoxicity at 5 µM (Jurkat T cells; [3]): 100%
- EC50 (Molt4): 1.58 ± 0.03 µmol/L
- EC50 (IM9): 1.21 ± 0.01 µmol/L

Compound: CCCCCCCCc1ccc(CCC(N)(CO)CO)cc1 [Fingolimod, reference compound]
- severity index (EAE, 0 to 5 scale) ([2]; at 17 days (start of administration)): 3±1
- severity index (EAE, 0 to 5 scale) ([2]; at 39 days, vehicle 2.5±0.75): 1.5±0.5
- severity index (EAE, 0 to 5 scale) ([2]; at 101 days, vehicle 2.33±0.25): 2.7±0.25

Compound: Cc1cc(C)c(OCC(=O)N/N=C/c2ccc3cc[nH]c3c2)c(C2CCOCC2)c1 [Compound 457, (E)-N′-((1H-indol-6-yl)methylene)-2-(2,4-dimethyl-6-(tetrahydro-2H-pyran-4-yl)phenoxy)acetohydrazide]
- EC50 (Raji): 0.68 ± 0.05 µmol/L
- EC50 (KMS26): 0.55 ± 0.12 µmol/L
- EC50 (Jurkat): 0.2 ± 0.01 µmol/L
- EC50 (CCRF-CEM): 0.17 µmol/L
- cytotoxicity at 5 µM (Jurkat T cells; [3]): 100%
- EC50 (Molt4): 0.25 ± 0.11 µmol/L
- EC50 (KMS11): 0.63 ± 0.31 µmol/L
- EC50 (NK-92MI): 0.46 ± 0.01 µmol/L
- EC50 (KMS12BM): 0.22 ± 0.02 µmol/L
- EC50 (IM9): 0.38 ± 0.01 µmol/L
- EC50 (KMS28BM): 0.47 ± 0.06 µmol/L

Compound: COc1ccc(OCC(=O)N/N=C/c2cccc3[nH]ccc23)c(-c2ccco2)c1 [Compound 346, (E)-N′-((1H-indol-4-yl)methylene)-2-(2-(furan-2-yl)-4-methoxyphenoxy)acetohydrazide]
- cytotoxicity at 5 µM (Jurkat T cells; read-out: Jurkat T Cell Apoptosis (% in 5 μM)): 100%

Compound: Cc1cc(Cl)cc(C)c1OCC(=O)N/N=C/c1ccc2cc[nH]c2c1 [Compound 157, (E)-N′-((1H-indol-6-yl)methylene)-2-(4-chloro-2,6-dimethylphenoxy)acetohydrazide]
- cytotoxicity at 5 µM (Jurkat T cells; [3]): 100%
